Assay results: patent publication US20260125421A1, “ANTIVIRAL COMPOUNDS” (Hoffmann-La Roche Inc., priority 2022, published 2026)

Legend:
Test in all cases: biochemical
SARS-CoV 3CL^pro = SARS-CoV 3CL^pro (Severe acute respiratory syndrome coronavirus, UniProt P0C6X7)
SARS-CoV-2 3CL^pro = target: T1, SARS-CoV-2 3CL^pro (Severe acute respiratory syndrome coronavirus 2, UniProt P0DTD1)
T1 construct: […]; made in house; host or cells: Escherichia coli

MERS-CoV 3CL^pro = MERS-CoV 3CL^pro (Middle East respiratory syndrome-related coronavirus, UniProt K9N7C7)
Sequence of MERS-CoV 3CL^pro (K9N7C7 3248-3553): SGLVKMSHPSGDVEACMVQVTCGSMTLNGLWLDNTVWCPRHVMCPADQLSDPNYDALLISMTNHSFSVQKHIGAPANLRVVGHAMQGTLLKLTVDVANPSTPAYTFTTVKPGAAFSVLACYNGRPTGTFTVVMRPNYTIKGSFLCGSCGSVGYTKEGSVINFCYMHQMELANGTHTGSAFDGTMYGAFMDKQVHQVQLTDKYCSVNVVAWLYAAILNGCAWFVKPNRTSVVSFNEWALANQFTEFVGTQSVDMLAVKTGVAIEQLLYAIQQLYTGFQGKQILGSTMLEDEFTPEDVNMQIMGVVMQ

HCoV-229E 3CL^pro = target: T2, HCoV-229E 3CL^pro (Human coronavirus 229E, UniProt P0C6X1)
T2 construct: […]; made in house; host or cells: E. coli BL21 (DE3)
T2 sequence (P0C6X1 2966-3267): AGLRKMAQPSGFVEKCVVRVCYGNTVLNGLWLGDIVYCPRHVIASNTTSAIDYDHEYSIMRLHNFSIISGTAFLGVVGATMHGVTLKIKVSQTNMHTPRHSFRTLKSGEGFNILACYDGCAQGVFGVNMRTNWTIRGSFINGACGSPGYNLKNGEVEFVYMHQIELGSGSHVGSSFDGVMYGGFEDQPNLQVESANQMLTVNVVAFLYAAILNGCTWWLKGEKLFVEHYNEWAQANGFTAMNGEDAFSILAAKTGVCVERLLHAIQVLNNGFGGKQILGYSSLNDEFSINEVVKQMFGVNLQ

CC1(C)C[C@@H](CN(NC(=O)[C@@H]2[C@H]3CCC[C@H]3CN2C(=O)[C@@H](NC(=O)[C@@H]2CC2(F)F)C(C)(C)C)C(=O)[C@H](F)Cl)C(=O)N1 [Example 4, (1S)-N-[(1S)-1-[(3S,3aS,6aR)-3-[[[(2R)-2-chloro-2-fluoro-acetyl]-[[(3S)-5,5-dimethyl-2-oxo-pyrrolidin-3-yl]methyl]amino]carbamoyl]-3,3a,4,5,6,6a-hexahydro-1H-cyclopenta[c]pyrrole-2-carbonyl]-2,2-dimethyl-propyl]-2,2-difluoro-cyclopropanecarboxamide]
IC50 (SARS-CoV 3CL^pro): 15 nM
IC50 (SARS-CoV-2 3CL^pro): 11 nM
IC50 (MERS-CoV 3CL^pro): 518 nM
IC50 (HCoV-229E 3CL^pro): 838 nM

CC[C@H](C)[C@H](NC(=O)C1(F)CC1)C(=O)N1C[C@H]2[C@@H]([C@H]1C(=O)NN(C[C@H]1CC(C)(C)NC1=O)C(=O)[C@@H](F)Cl)C2(C)C [Example 19, N-[(1S,2S)-1-[(1R,2S,5S)-2-[[[(2S)-2-chloro-2-fluoro-acetyl]-[[(3R)-5,5-dimethyl-2-oxo-pyrrolidin-3-yl]methyl]amino]carbamoyl]-6,6-dimethyl-3-azabicyclo[3.1.0]hexane-3-carbonyl]-2-methyl-butyl]-1-fluoro-cyclopropanecarboxamide]
IC50 (SARS-CoV 3CL^pro): 32 nM
IC50 (SARS-CoV-2 3CL^pro): 19 nM
IC50 (MERS-CoV 3CL^pro): 553 nM
IC50 (HCoV-229E 3CL^pro): 834 nM

CC1(C)C[C@@H](CN(NC(=O)[C@@H]2[C@H]3CCC[C@H]3CN2C(=O)[C@@H](NC(=O)[C@@H](F)Cl)C(C)(C)C)C(=O)[C@H](F)Cl)C(=O)N1 [Example 15, (2S)-N-[(1S)-1-[(3S,3aS,6aR)-3-[[[(2R)-2-chloro-2-fluoro-acetyl]-[[(3S)-5,5-dimethyl-2-oxo-pyrrolidin-3-yl]methyl]amino]carbamoyl]-3,3a,4,5,6,6a-hexahydro-1H-cyclopenta[c]pyrrole-2-carbonyl]-2,2-dimethyl-propyl]-2-chloro-2-fluoro-acetamide]
IC50 (SARS-CoV 3CL^pro): 12 nM
IC50 (SARS-CoV-2 3CL^pro): 11 nM
IC50 (MERS-CoV 3CL^pro): 488 nM
IC50 (HCoV-229E 3CL^pro): 589 nM

CC(C)(C)[C@H](NC(=O)[C@@H]1CC1(F)F)C(=O)N1C[C@@H]2CCC[C@@H]2[C@H]1C(=O)NN(C[C@@H]1C(=O)N[C@@H]2C[C@H]12)C(=O)[C@H](F)Cl [Example 38, (1S)-N-[(1S)-1-[(3S,3aS,6aR)-3-[[[(2R)-2-chloro-2-fluoro-acetyl]-[[(1R,4R,5R)-3-oxo-2-azabicyclo[3.1.0]hexan-4-yl]methyl]amino]carbamoyl]-3,3a,4,5,6,6a-hexahydro-1H-cyclopenta[c]pyrrole-2-carbonyl]-2,2-dimethyl-propyl]-2,2-difluoro-cyclopropanecarboxamide]
IC50 (SARS-CoV 3CL^pro): 54 nM
IC50 (SARS-CoV-2 3CL^pro): 27 nM
IC50 (MERS-CoV 3CL^pro): 398 nM
IC50 (HCoV-229E 3CL^pro): 134 nM

CC(C)(C)[C@H](NC(=O)[C@@H]1CC1(F)F)C(=O)N1C[C@@H]2CCC[C@@H]2[C@H]1C(=O)NN(C[C@@H]1C(=O)N[C@@H]2C[C@H]12)C(=O)[C@@H](F)Cl [Example 40, (1S)-N-[(1S)-1-[(3S,3aS,6aR)-3-[[[(2S)-2-chloro-2-fluoro-acetyl]-[[(1R,4R,5R)-3-oxo-2-azabicyclo[3.1.0]hexan-4-yl]methyl]amino]carbamoyl]-3,3a,4,5,6,6a-hexahydro-1H-cyclopenta[c]pyrrole-2-carbonyl]-2,2-dimethyl-propyl]-2,2-difluoro-cyclopropanecarboxamide]
IC50 (SARS-CoV 3CL^pro): 122 nM
IC50 (SARS-CoV-2 3CL^pro): 64 nM
IC50 (MERS-CoV 3CL^pro): 538 nM
IC50 (HCoV-229E 3CL^pro): 257 nM

C[C@H]1C[C@H](CN(NC(=O)[C@@H]2[C@@H]3[C@H](CN2C(=O)[C@@H](NC(=O)[C@@H]2CC2(F)F)C(C)(C)C)C3(C)C)C(=O)[C@H](F)Cl)C(=O)N1 [Example 31, (1S)-N-[(1S)-1-[(1R,2S,5S)-2-[[[(2R)-2-chloro-2-fluoro-acetyl]-[[(3R,5S)-5-methyl-2-oxo-pyrrolidin-3-yl]methyl]amino]carbamoyl]-6,6-dimethyl-3-azabicyclo[3.1.0]hexane-3-carbonyl]-2,2-dimethyl-propyl]-2,2-difluoro-cyclopropanecarboxamide]
IC50 (SARS-CoV 3CL^pro): 53 nM
IC50 (SARS-CoV-2 3CL^pro): 25 nM
IC50 (MERS-CoV 3CL^pro): 555 nM
IC50 (HCoV-229E 3CL^pro): 116 nM

CC1(C)C[C@H](CN(NC(=O)[C@@H]2[C@H]3CCC[C@H]3CN2C(=O)[C@@H](NC(=O)[C@@H]2CC2(F)F)C(C)(C)C)C(=O)[C@H](F)Cl)C(=O)N1 [Example 5, (1S)-N-[(1S)-1-[(3S,3aS,6aR)-3-[[[(2R)-2-chloro-2-fluoro-acetyl]-[[(3R)-5,5-dimethyl-2-oxo-pyrrolidin-3-yl]methyl]amino]carbamoyl]-3,3a,4,5,6,6a-hexahydro-1H-cyclopenta[c]pyrrole-2-carbonyl]-2,2-dimethyl-propyl]-2,2-difluoro-cyclopropanecarboxamide]
IC50 (SARS-CoV 3CL^pro): 137 nM
IC50 (SARS-CoV-2 3CL^pro): 81 nM
IC50 (MERS-CoV 3CL^pro): 1240 nM
IC50 (HCoV-229E 3CL^pro): 4100 nM

CCC(CC)[C@H](NC(=O)C(F)F)C(=O)N1C[C@@H]2CCC[C@@H]2[C@H]1C(=O)NN(C[C@H]1CC(C)(C)NC1=O)C(=O)[C@H](F)Cl [Example 8]
IC50 (SARS-CoV 3CL^pro): 256 nM
IC50 (SARS-CoV-2 3CL^pro): 129 nM
IC50 (MERS-CoV 3CL^pro): 3020 nM
IC50 (HCoV-229E 3CL^pro): 6710 nM

CC(C)(C)[C@H](NC(=O)[C@@H]1CC1(F)F)C(=O)N1C[C@@H]2CCC[C@@H]2[C@H]1C(=O)NN(C[C@H]1CC2(CC2)NC1=O)C(=O)[C@H](F)Cl [Example 26, (1S)-N-[(1S)-1-[(3S,3aS,6aR)-3-[[[(2R)-2-chloro-2-fluoro-acetyl]-[[(6R)-5-oxo-4-azaspiro[2.4]heptan-6-yl]methyl]amino]carbamoyl]-3,3a,4,5,6,6a-hexahydro-1H-cyclopenta[c]pyrrole-2-carbonyl]-2,2-dimethyl-propyl]-2,2-difluoro-cyclopropanecarboxamide]
IC50 (SARS-CoV 3CL^pro): 11 nM
IC50 (SARS-CoV-2 3CL^pro): 12 nM
IC50 (MERS-CoV 3CL^pro): 111 nM
IC50 (HCoV-229E 3CL^pro): 45 nM

CCC(CC)[C@H](NC(=O)C(F)F)C(=O)N1C[C@@H]2CCC[C@@H]2[C@H]1C(=O)NN(C[C@@H]1CC(C)(C)NC1=O)C(=O)[C@H](F)Cl [Example 7, N-[(1S)-1-[(3S,3aS,6aR)-3-[[[(2R)-2-chloro-2-fluoro-acetyl]-[[(3S)-5,5-dimethyl-2-oxo-pyrrolidin-3-yl]methyl]amino]carbamoyl]-3,3a,4,5,6,6a-hexahydro-1H-cyclopenta[c]pyrrole-2-carbonyl]-2-ethyl-butyl]-2,2-difluoro-acetamide]
IC50 (SARS-CoV 3CL^pro): 9 nM
IC50 (SARS-CoV-2 3CL^pro): 7 nM
IC50 (MERS-CoV 3CL^pro): 162 nM
IC50 (HCoV-229E 3CL^pro): 130 nM

CC1(C)C[C@@H](CN(NC(=O)[C@@H]2[C@@H]3[C@H](CN2C(=O)[C@@H](NC(=O)[C@H](F)Cl)C(C)(C)C)C3(C)C)C(=O)[C@H](F)Cl)C(=O)N1 [Example 20]
IC50 (SARS-CoV 3CL^pro): 32 nM
IC50 (SARS-CoV-2 3CL^pro): 24 nM
IC50 (MERS-CoV 3CL^pro): 1070 nM
IC50 (HCoV-229E 3CL^pro): 2020 nM

CC[C@H](C)[C@H](NC(=O)C1(F)CC1)C(=O)N1C[C@H]2[C@@H]([C@H]1C(=O)NN(C[C@H]1CC(C)(C)NC1=O)C(=O)[C@H](F)Cl)C2(C)C [Example 1b, N-[(1S,2S)-1-[(1R,2S,5S)-2-[[[(2R)-2-chloro-2-fluoro-acetyl]-[[(3R)-5,5-dimethyl-2-oxo-pyrrolidin-3-yl]methyl]amino]carbamoyl]-6,6-dimethyl-3-azabicyclo[3.1.0]hexane-3-carbonyl]-2-methyl-butyl]-1-fluoro-cyclopropanecarboxamide]
IC50 (SARS-CoV 3CL^pro): 18 nM
IC50 (SARS-CoV-2 3CL^pro): 13 nM
IC50 (MERS-CoV 3CL^pro): 234 nM
IC50 (HCoV-229E 3CL^pro): 131 nM

C[C@H]1C[C@@H](CN(NC(=O)[C@@H]2[C@@H]3[C@H](CN2C(=O)[C@@H](NC(=O)[C@@H]2CC2(F)F)C(C)(C)C)C3(C)C)C(=O)[C@H](F)Cl)C(=O)N1 [Example 33, (1S)-N-[(1S)-1-[(1R,2S,5S)-2-[[[(2R)-2-chloro-2-fluoro-acetyl]-[[(3S,5S)-5-methyl-2-oxo-pyrrolidin-3-yl]methyl]amino]carbamoyl]-6,6-dimethyl-3-azabicyclo[3.1.0]hexane-3-carbonyl]-2,2-dimethyl-propyl]-2,2-difluoro-cyclopropanecarboxamide]
IC50 (SARS-CoV 3CL^pro): 13 nM
IC50 (SARS-CoV-2 3CL^pro): 6 nM
IC50 (MERS-CoV 3CL^pro): 72 nM
IC50 (HCoV-229E 3CL^pro): 26 nM

CC(C)(C)[C@H](NC(=O)[C@@H]1CC1(F)F)C(=O)N1C[C@@H]2CCC[C@@H]2[C@H]1C(=O)NN(C[C@H]1C(=O)N[C@@H]2C[C@@H]21)C(=O)[C@@H](F)Cl [Example 37, (1S)-N-[(1S)-1-[(3S,3aS,6aR)-3-[[[(2S)-2-chloro-2-fluoro-acetyl]-[[(1R,4S,5R)-3-oxo-2-azabicyclo[3.1.0]hexan-4-yl]methyl]amino]carbamoyl]-3,3a,4,5,6,6a-hexahydro-1H-cyclopenta[c]pyrrole-2-carbonyl]-2,2-dimethyl-propyl]-2,2-difluoro-cyclopropanecarboxamide]
IC50 (SARS-CoV 3CL^pro): 21 nM
IC50 (SARS-CoV-2 3CL^pro): 17 nM
IC50 (MERS-CoV 3CL^pro): 320 nM
IC50 (HCoV-229E 3CL^pro): 191 nM

CC1(C)C[C@H](CN(NC(=O)[C@@H]2[C@H]3CCC[C@H]3CN2C(=O)[C@@H](NC(=O)C(F)F)C(C)(C)C)C(=O)[C@H](F)Cl)C(=O)N1 [Example 10, N-[(1S)-1-[(3S,3aS,6aR)-3-[[[(2R)-2-chloro-2-fluoro-acetyl]-[[(3R)-5,5-dimethyl-2-oxo-pyrrolidin-3-yl]methyl]amino]carbamoyl]-3,3a,4,5,6,6a-hexahydro-1H-cyclopenta[c]pyrrole-2-carbonyl]-2,2-dimethyl-propyl]-2,2-difluoro-acetamide]
IC50 (SARS-CoV 3CL^pro): 53 nM
IC50 (SARS-CoV-2 3CL^pro): 31 nM
IC50 (MERS-CoV 3CL^pro): 794 nM
IC50 (HCoV-229E 3CL^pro): 3040 nM
